Test results taken from US10934298B2, “Substituted pyrazolo[1,5-a]pyrimidines for the treatment of medical disorders” (BIAL—BioTech Investments, Inc., priority 2016, dated 2021).

Molecular target: T1, glucocerebrosidase (Gcase) (Homo sapiens, UniProt P04062)
T1 construct: micellar solution containing 10 nM GCase and 100 nM saposin C
T1 sequence (P04062 40-536): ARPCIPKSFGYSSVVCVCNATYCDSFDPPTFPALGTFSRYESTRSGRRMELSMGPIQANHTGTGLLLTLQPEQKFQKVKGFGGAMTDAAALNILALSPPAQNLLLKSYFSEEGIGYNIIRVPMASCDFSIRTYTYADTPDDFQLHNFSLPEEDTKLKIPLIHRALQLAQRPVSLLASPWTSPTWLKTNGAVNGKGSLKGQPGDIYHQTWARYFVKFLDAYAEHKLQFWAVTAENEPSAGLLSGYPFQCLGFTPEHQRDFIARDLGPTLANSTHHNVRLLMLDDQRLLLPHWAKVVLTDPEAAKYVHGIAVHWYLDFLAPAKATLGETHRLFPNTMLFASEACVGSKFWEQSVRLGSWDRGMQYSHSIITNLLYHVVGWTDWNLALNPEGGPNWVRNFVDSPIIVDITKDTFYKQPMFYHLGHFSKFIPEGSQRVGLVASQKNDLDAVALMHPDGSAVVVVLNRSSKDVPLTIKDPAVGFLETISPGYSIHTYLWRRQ
Experiment: Glucocerebrosidase (Gcase) activation assay with 4-methylumbelliferyl-beta-D-glucopyranoside substrate, saposin C and phosphatidylserine/triton micelles, fluorescence readout
Assay type: biochemical
In short: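 10 nM GCase with 100 nM saposin C pre-incubated 30 min with compound in pH 4.7 phosphate/citrate PS/triton micelles, then mixed 1:1 with 2 mM 4-methylumbelliferyl-β-glucoside micellar substrate (stock level). Run 15 min at room temperature, stopped at pH 12.5; fluorescence 365/440 nm. Screened at 1.0 and 0.1 μM; 8-point curves from 5 μM.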

SMILES	Percent Gcase Activation, 0.1 μM Test Compound (test compound at 0.1 μM)	Percent Gcase Activation, 1 μM Test Compound (test compound at 1.0 μM)	further results
COc1cc(F)cc(-c2cc(C)n3ncc(C(=O)NC(C)C(F)(F)F)c3n2)c1 (centres unmarked) [III-410]			Percent Gcase Activation, 0.1 μM Test Compound (0.1 μM test compound): *** (greater than 20% Gcase activation); Percent Gcase Activation, 1 μM Test Compound (1 μM test compound): +++ (Gcase activation greater than 60%)
Cc1cc(-c2ccoc2)nc2c(C(=O)NC(C3CC3)C(F)(F)F)cnn12 (centres unmarked) [III-187]	*** (greater than 20% Gcase activation)	+++ (Gcase activation greater than 60%)	
Cc1cnc(-c2cc(C)n3ncc(C(=O)NC(C4CC4)C(F)(F)F)c3n2)o1 (centres unmarked) [III-253]	*** (greater than 20% Gcase activation)	+++ (Gcase activation greater than 60%)	
Cc1cc(-c2cccc3ncoc23)nc2c(C(=O)NC(C3CC3)C(F)(F)F)cnn12 (centres unmarked) [III-104]	*** (greater than 20% Gcase activation)	+++ (Gcase activation greater than 60%)	
Cc1cc(-c2ccns2)nc2c(C(=O)N[C@H](C)C3CC3)cnn12 [III-198]	* (less than 10% Gcase activation)	+++ (Gcase activation greater than 60%)	
Cc1cc(N2CC(C)(C)N(C)C2=O)nc2c(C(=O)N[C@H](C3CC3)C(F)(F)F)cnn12 [III-357]			Percent Gcase Activation, 0.1 μM Test Compound (0.1 μM test compound): ** (Gcase activation in the range of 10% up to 20%); Percent Gcase Activation, 1 μM Test Compound (1 μM test compound): +++ (Gcase activation greater than 60%)
Cc1cc(-c2ccncc2)n2ncc(C(=O)NC(C)(C)C3CC3)c2n1 [III-21]			Percent Gcase Activation, 0.1 μM Test Compound (0.1 μM test compound, Table 3A): * (less than 10% Gcase activation); Percent Gcase Activation, 1 μM Test Compound (1 μM test compound, Table 3A): + (less than 30% Gcase activation)
Cc1cc(-c2cccc(Cl)n2)nc2c(C(=O)N[C@H](C)C3CC3)cnn12 [III-132]	** (Gcase activation in the range of 10% up to 20%)	+++ (Gcase activation greater than 60%)	
Cc1cc(-c2cncc(C#N)c2)nc2c(C(=O)N[C@@H](C3CC3)C(F)(F)F)cnn12 [III-364]			Percent Gcase Activation, 0.1 μM Test Compound (0.1 μM test compound): ** (Gcase activation in the range of 10% up to 20%); Percent Gcase Activation, 1 μM Test Compound (1 μM test compound): +++ (Gcase activation greater than 60%)
Cc1nc(-c2cc(C)n3ncc(C(=O)NC(C4CC4)C(F)(F)F)c3n2)co1 (centres unmarked) [III-249]	** (Gcase activation in the range of 10% up to 20%)	+++ (Gcase activation greater than 60%)	
Cc1cc(-c2cccc3nc[nH]c23)nc2c(C(=O)NC(C3CC3)C(F)(F)F)cnn12 (centres unmarked) [III-308]			Percent Gcase Activation, 0.1 μM Test Compound (0.1 μM test compound): * (less than 10% Gcase activation); Percent Gcase Activation, 1 μM Test Compound (1 μM test compound): +++ (Gcase activation greater than 60%)
Cc1cc(-c2ccccn2)nc2c(C(=O)NC(C3CC3)C(F)(F)F)cnn12 (centres unmarked) [III-36]			Percent Gcase Activation, 0.1 μM Test Compound (0.1 μM test compound, Table 3A): *** (greater than 20% Gcase activation); Percent Gcase Activation, 1 μM Test Compound (1 μM test compound, Table 3A): +++ (Gcase activation greater than 60%)
Cc1coc(-c2cc(C)n3ncc(C(=O)N[C@@H](C4CC4)C(F)(F)F)c3n2)n1 [III-256]	*** (greater than 20% Gcase activation)	+++ (Gcase activation greater than 60%)	
Cc1cc(C)n2ncc(C(=O)N[C@H](C)C3CCCCC3)c2n1 [III-3]			Percent Gcase Activation, 0.1 μM Test Compound (0.1 μM test compound, Table 3A): *** (greater than 20% Gcase activation); Percent Gcase Activation, 1 μM Test Compound (1 μM test compound, Table 3A): +++ (Gcase activation greater than 60%)
COc1ccncc1-c1cc(C)n2ncc(C(=O)NC(C)C(F)(F)F)c2n1 (centres unmarked) [III-269]	* (less than 10% Gcase activation)	+ (less than 30% Gcase activation)	
Cc1cc(-c2cccc3c2OCO3)nc2c(C(=O)N[C@@H](C)C3CC3)cnn12 [III-182]	*** (greater than 20% Gcase activation)	++ (Gcase activation in the range of 30% up to 60%)	
Cc1cc(-c2cnccc2C(F)(F)F)nc2c(C(=O)NC(C)C(F)(F)F)cnn12 (centres unmarked) [III-284]			Percent Gcase Activation, 0.1 μM Test Compound (0.1 μM test compound): ** (Gcase activation in the range of 10% up to 20%); Percent Gcase Activation, 1 μM Test Compound (1 μM test compound): +++ (Gcase activation greater than 60%)
Cc1cc(-c2ccc(F)c(C#N)c2)nc2c(C(=O)N[C@@H](C)C3CC3)cnn12 [III-157]	*** (greater than 20% Gcase activation)	+++ (Gcase activation greater than 60%)	
Cc1cc(-c2cc(F)ccn2)nc2c(C(=O)NC(C3CC3)C(F)(F)F)cnn12 (centres unmarked) [III-205]	*** (greater than 20% Gcase activation)	+++ (Gcase activation greater than 60%)	
